SMILES strings stand for the structures. Structures can show the parent of a compound that is named as a salt.

LsrK, sequence (Q8ZKQ6 whole entry): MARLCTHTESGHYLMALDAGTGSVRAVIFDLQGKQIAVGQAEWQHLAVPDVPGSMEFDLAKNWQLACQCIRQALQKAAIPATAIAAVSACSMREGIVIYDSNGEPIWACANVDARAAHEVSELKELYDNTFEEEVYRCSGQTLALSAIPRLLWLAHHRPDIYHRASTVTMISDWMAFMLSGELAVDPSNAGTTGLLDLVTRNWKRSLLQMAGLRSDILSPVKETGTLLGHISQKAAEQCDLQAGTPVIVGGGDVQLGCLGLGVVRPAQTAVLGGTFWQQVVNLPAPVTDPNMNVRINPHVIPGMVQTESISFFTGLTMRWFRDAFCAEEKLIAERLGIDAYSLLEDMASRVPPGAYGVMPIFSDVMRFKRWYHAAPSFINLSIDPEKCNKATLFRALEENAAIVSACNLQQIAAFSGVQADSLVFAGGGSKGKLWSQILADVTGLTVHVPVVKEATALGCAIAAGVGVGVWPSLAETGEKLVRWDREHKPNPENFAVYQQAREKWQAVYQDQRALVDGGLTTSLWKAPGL

The first test concerns the target LsrK (Salmonella typhimurium, UniProt Q8ZKQ6). Put plainly: biochemical.
Conditions: not given
Format: biochemical, S. typhimurium.
Broadly, the inhibition is how much of the control response was suppressed. Read a low inhibition as a response near the control. Take `CCn1cc(C(=O)O)c(=O)c2cc(F)c(N3CCNCC3)nc21` [ENOXACIN]: the inhibition at 50 µM was determined as 0%.

Consider `CC1(C)[C@@H](O)CC[C@]2(C)[C@H]3C(=O)C=C4[C@@H]5C[C@@](C)(C(=O)O)CC[C@]5(C)CC[C@@]4(C)[C@]3(C)CC[C@@H]12` [ENOXOLONE], for which at 50 µM the inhibition was 2%.

The compound `CCN1CCN(c2cc3c(cc2F)c(=O)c(C(=O)O)cn3C2CC2)CC1` [ENROFLOXACIN] gave an inhibition at 50 µM of 1%.

`Oc1cc(O)c2c(c1)O[C@H](c1ccc(O)c(O)c1)[C@H](O)C2` [EPICATECHIN] had an inhibition at 50 µM of 2%.

The compound `Oc1cc(O)c2c(c1)O[C@H](c1cc(O)c(O)c(O)c1)[C@H](O)C2` [EPIGALLOCATECHIN] showed an inhibition at 50 µM of 89%.

In turn, `C[C@]12CC[C@H]3[C@@H](CCC4=CC(=O)CC[C@@]43C)[C@@H]1CC[C@H]2O` [EPITESTOSTERONE] had an inhibition at 50 µM of 0%.

`C[C@]12CC[C@H]3C(=CCc4cc(O)ccc43)[C@@H]1CCC2=O` [EQUILIN] returned an inhibition at 50 µM of 1%.

`CC(C)[C@@H](C)/C=C/[C@@H](C)[C@H]1CC[C@H]2C3=CC=C4C[C@@H](O)CC[C@]4(C)[C@H]3CC[C@]12C` [ERGOSTEROL]: the inhibition at 50 µM is 0%.

For `CN1C[C@H](C(=O)N[C@]2(C)O[C@@]3(O)[C@@H]4CCCN4C(=O)[C@H](Cc4ccccc4)N3C2=O)C=C2c3cccc4[nH]cc(c34)C[C@H]21` [ERGOTAMINE TARTRATE], the inhibition at 50 µM came out at 2%.

`CCC(=O)O[C@H]1[C@H](O[C@@H]2[C@@H](C)[C@H](O[C@H]3C[C@@](C)(OC)[C@@H](O)[C@H](C)O3)[C@@H](C)C(=O)O[C@H](CC)[C@@](C)(O)[C@H](O)[C@@H](C)C(=O)[C@H](C)C[C@@]2(C)O)O[C@H](C)C[C@@H]1N(C)C` [ERYTHROMYCIN ESTOLATE] had an inhibition at 50 µM of 10%.

The compound `CCOC(=O)CCC(=O)O[C@H]1[C@H](O[C@@H]2[C@@H](C)[C@H](O[C@H]3C[C@@](C)(OC)[C@@H](O)[C@H](C)O3)[C@@H](C)C(=O)O[C@H](CC)[C@@](C)(O)[C@H](O)[C@@H](C)C(=O)[C@H](C)C[C@@]2(C)O)O[C@H](C)C[C@@H]1N(C)C` [ERYTHROMYCIN ETHYLSUCCINATE] gave an inhibition at 50 µM of 1%.

Compound `CC[C@H]1OC(=O)[C@H](C)[C@@H](O[C@H]2C[C@@](C)(OC)[C@@H](O)[C@H](C)O2)[C@H](C)[C@@H](O[C@@H]2O[C@H](C)C[C@H](N(C)C)[C@H]2O)[C@](C)(O)C[C@@H](C)C(=O)[C@H](C)[C@@H](O)[C@]1(C)O` [ERYTHROMYCIN] displayed an inhibition at 50 µM of 0%.

Still in this test, the particulars now being: 50 µM.
Consider `CCC(C)C(=O)O[C@@H]1C[C@@]2(C)[C@H](c3ccoc3)OC(=O)CC23OC2(C)OC34[C@H](OC(=O)C(C)C)[C@@]3(O)[C@@H](OC(=O)C5(C)OC5C)[C@@]5(C)C[C@]3(O)[C@@](C)([C@H]5CC(=O)OC)C14O2` (stereo partly shown) [ENTANDROPHRAGMIN], for which the “Inhibition (%)” value was 1.

For the compound `O=C(O[C@@H]1Cc2c(O)cc(O)cc2O[C@@H]1c1ccc(O)c(O)c1)c1cc(O)c(O)c(O)c1` [EPICATECHIN MONOGALLATE], the “Inhibition (%)” value was 86.

As for `O=C(Oc1cc(O)cc2c1C[C@@H](OC(=O)c1cc(O)c(O)c(O)c1)[C@@H](c1cc(O)c(O)c(O)c1)O2)c1cc(O)c(O)c(O)c1` [EPIGALLOCATECHIN 3.5-DIGALLATE], the “Inhibition (%)” value was 88.

Regarding `O=C(O[C@@H]1Cc2c(O)cc(O)cc2O[C@@H]1c1cc(O)c(O)c(O)c1)c1cc(O)c(O)c(O)c1` [EPIGALLOCATECHIN-3-MONOGALLATE], the “Inhibition (%)” value is recorded as 87.

Regarding `CC(=O)O[C@@H]1CC2C(C)(C)C(=O)C3OC3[C@]2(C)C2CC[C@@]3(C)[C@H](c4ccoc4)OC(=O)C4OC43[C@@]21C` (stereo partly shown) [EPOXYGEDUNIN], the “Inhibition (%)” value was found to be 0.

With `CC(=O)O[C@H]1CC[C@@]2(C)C(=CC=C3[C@@H]4CC[C@H]([C@H](C)/C=C/[C@H](C)C(C)C)[C@@]4(C)CC[C@@H]32)C1` [ERGOSTEROL ACETATE], the “Inhibition (%)” value was 2.

As for `O=C([O-])c1ccccc1-c1c2cc(I)c(=O)c(I)c-2oc2c(I)c([O-])c(I)cc12.[Na+].[Na+]` [ERYTHROSINE SODIUM], the “Inhibition (%)” value came to 69.

The record behind these values is PMC6627609, “Targeting Quorum Sensing: High-Throughput Screening to Identify Novel LsrK Inhibitors” (International Journal of Molecular Sciences, 2019).
